Experimental data as given in patent EP4260858A1, “COMPOSITION COMPRISING PRIMIDONE AND PEG” (Christian-Albrechts-Universität zu Kiel, priority 2022, dated 2023).

What was measured:
[1] = test system: L929 fibroblasts; assay: TNFα + zVAD induced RIPK1-dependent necroptosis, FACS (7-AAD / Annexin V); assay type: cell-based
Experimental: (§1) The commercially available drug Necrostatin-1 (Nec-1s, 20 µM) acted as an internal control (inhibitor) of RIPK1-mediated cell death. All drugs were added 30 min before TNFα stimulation. RIPK1-mediated cell death was quantified by FACS analysis using 7-amino-actinomycin D and phosphatidylserine accessibility (Annexin V staining) as markers. […] The commercially available drug Necrostatin-1 (Nec-1s, 20 µM) acted as an internal control (inhibitor) of RIPK1-mediated cell death. All drugs were added 30 min before TNFα stimulation. RIPK1-mediated cell death was quantified by FACS analysis using 7-amino-actinomycin D and phosphatidylserine accessibility (Annexin V staining) as markers. […] All drugs were added 30 min before TNFα stimulation. […] All drugs were added 30 min before TNFα stimulation. Necroptotic cell death was quantified by FACS analysis using 7-amino-actinomycin D and phosphatidylserine accessibility (Annexin V staining) as markers.
(§2) The known RIPK1 kinase inhibitor Nec-1s was used as a control.
(§3) RIPK3-expressing NIH3T3 cells and L929 fibroblasts were obtained from the American Type Culture Collection (Manassas, VA, USA). Both cell lines were cultured in DMEM (Gibco, Thermo Fisher Scientific, Schwerte, Germany) supplemented with 10% (v/v) FCS (PAN-Biotech GmbH, Aidenbach, Germany), 100 U/ml penicillin, and 100 µg/ml streptomycin (both from Merck Millipore GmbH, Darmstadt, Germany). The cell lines were cultured in a humidified 5% CO2 atmosphere at 37°C. Negativity for mycoplasma was routinely checked using a MycoAlert Mycoplasma Detection Kit (Lonza, Cologne, Germany). Unless stated otherwise, assays were conducted using 1x 10^5 cells in 1 ml of medium.
(§4) Recombinant purified TNFα (# 570104) was purchased from BioLegend (Amsterdam, the Netherlands). The pan-caspase inhibitor zVAD-fmk (# 4026865) was purchased from Bachem (Weil am Rhein, Germany), Nec-1s (2263-1-BV) was obtained from BioCat (Heidelberg, Germany); primidone (# P7295) was purchased from Sigma-Aldrich Chemie GmbH (Taufkirchen, Germany). Polyethylenglycol (PEG300, # 202371) was purchased from Merck Millipore, Dimethyl sulfoxide (DMSO, A3672) was obtained from AppliChem (via Thermo Fisher Scientific).
(§5) For testing the ability of primidone to protect against RIPK1-driven cell death, cells were kept in 1 ml medium. To test 1 mM, 0.75 mM and 0.5 mM primidone in PEG300, we pipetted 15.6 µl, 11.7 µl and 7.8 µl, respectively, of the 64.144 mM stock solution to the 1 ml of the medium that contains the cells. […]
(§6) Phosphatidylserine exposure to the outer cell membrane of apoptotic cells or inner plasma membrane of necrotic cells and incorporation of 7-amino-actinomycin D (7-AAD) into necrotic cells was quantified by flow cytometry analysis. […]

[2] = test system: NIH3T3 cells; assay: as above; assay type: cell-based
Experimental: as §1, §2, §3, §4, §5, §6

[3] = biological target: T1, RIPK1 (Homo sapiens, UniProt Q13546); details: background statement, WO 2021/048162 A1; cited from earlier work
T1 sequence (Q13546 1-671): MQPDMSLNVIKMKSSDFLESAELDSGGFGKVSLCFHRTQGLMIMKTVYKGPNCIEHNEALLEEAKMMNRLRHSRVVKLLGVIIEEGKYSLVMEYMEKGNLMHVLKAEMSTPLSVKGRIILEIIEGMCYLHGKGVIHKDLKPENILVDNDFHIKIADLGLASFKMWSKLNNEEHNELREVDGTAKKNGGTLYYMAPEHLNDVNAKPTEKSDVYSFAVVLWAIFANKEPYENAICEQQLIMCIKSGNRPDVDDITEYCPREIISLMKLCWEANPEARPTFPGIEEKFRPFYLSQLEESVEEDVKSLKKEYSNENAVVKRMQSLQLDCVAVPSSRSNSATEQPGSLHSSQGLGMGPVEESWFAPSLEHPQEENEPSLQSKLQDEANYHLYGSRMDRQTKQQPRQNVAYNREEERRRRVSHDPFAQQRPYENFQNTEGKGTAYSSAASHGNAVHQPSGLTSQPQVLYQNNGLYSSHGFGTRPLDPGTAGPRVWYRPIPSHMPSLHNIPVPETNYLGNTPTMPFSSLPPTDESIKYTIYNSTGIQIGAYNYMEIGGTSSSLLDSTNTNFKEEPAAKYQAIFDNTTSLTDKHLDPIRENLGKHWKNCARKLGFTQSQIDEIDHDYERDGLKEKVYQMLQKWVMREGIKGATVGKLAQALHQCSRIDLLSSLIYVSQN

[4] = cited from earlier work
[5] = primidone solubilized in PEG300, control Nec-1s 20 µM

CCC1(c2ccccc2)C(=O)NCNC1=O [primidone, 5-Ethyl-5-phenyl-1,3-diazinane-4,6-dione]
protection from RIPK1-mediated necroptosis ([1]; 10 ng/ml TNFα + 25 µM zVAD, 24 h, 37°C, equimolar primidone (0.5-1 mM) dissolved in DMSO or PEG300, added 30 min before TNFα): able to protect | protective effects compared with Nec-1s [1, 5]: as strong as those observed for Nec-1s | protection from RIPK1-mediated necroptosis ([2]; 100 ng/ml TNFα + 25 µM zVAD, 24 h, 37°C, equimolar primidone (0.5-1 mM) dissolved in DMSO or PEG300, added 30 min before TNFα): able to protect | protective effects compared with Nec-1s [2, 5]: as strong as those observed for Nec-1s | activation of RIPK1 by phosphorylation or autophosphorylation [3]: prevents the activation of RIPK1 | soluble in dimethyl sulfoxide (DMSO) in amounts of up to ([4]; DMSO): up to 44 mg/ml | soluble in ethanol up to a concentration ([4]; ethanol): about 3 mg/ml | soluble in water up to a concentration ([4]; water): about 0.5 mg/ml
